In this test the test system is L1210 leukemia ip in BDF1 mice, survival T/C. The test can be described thus: NCI In Vivo Anticancer Drug Screen. Data for tumor model L1210 Leukemia (intraperitoneal) in B6D2F1 (BDF1) mice. The note with it: endpoint: mean survival time, higher = longer survival. In outline: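 Read-out is survival time, reported as the treated-group measurement over the vehicle-control measurement.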

Where [1] appears, read: dose: 50.0 mg/kg/injection, schedule: Q01DX009 (ip), vehicle: saline with Tween-80.
The mark [2] stands for this setting: dose: 50.0 mg/kg/injection, schedule: Q04DX003 (ip), vehicle: saline with Tween-80.
The mark [3] stands for this setting: dose: 100.0 mg/kg/injection, schedule: Q04DX003 (ip), vehicle: saline with Tween-80.
[4] abbreviates: dose: 100.0 mg/kg/injection, schedule: Q01DX009 (ip), vehicle: saline with Tween-80.
[5] abbreviates: dose: 200.0 mg/kg/injection, schedule: Q01DX009 (ip), vehicle: saline with Tween-80.
Setting [6] is: dose: 200.0 mg/kg/injection, schedule: Q04DX003 (ip), vehicle: saline with Tween-80.
The mark [7] stands for this setting: dose: 100.0 mg/kg/injection, schedule: Q01DX009 (ip), vehicle: Klucel (hydroxypropylcellulose) (HPC).
[8] abbreviates: dose: 100.0 mg/kg/injection, schedule: Q04DX003 (ip), vehicle: Klucel (hydroxypropylcellulose) (HPC).
The mark [9] stands for this setting: dose: 200.0 mg/kg/injection, schedule: Q01DX009 (ip), vehicle: Klucel (hydroxypropylcellulose) (HPC).
Setting [10] is: dose: 200.0 mg/kg/injection, schedule: Q04DX003 (ip), vehicle: Klucel (hydroxypropylcellulose) (HPC).
[11] abbreviates: dose: 400.0 mg/kg/injection, schedule: Q01DX009 (ip), vehicle: Klucel (hydroxypropylcellulose) (HPC).
Setting [12] is: dose: 400.0 mg/kg/injection, schedule: Q04DX003 (ip), vehicle: Klucel (hydroxypropylcellulose) (HPC).
Where [13] appears, read: dose: 100.0 mg/kg/injection, schedule: Q04DX002 (ip), vehicle: saline with Tween-80.
Where [14] appears, read: dose: 400.0 mg/kg/injection, schedule: Q01DX001 (ip), vehicle: carboxymethylcellulose (CMC).
Setting [15] is: dose: 100.0 mg/kg/injection, schedule: Q01DX001 (ip), vehicle: saline.
Where [16] appears, read: dose: 200.0 mg/kg/injection, schedule: Q01DX001 (ip), vehicle: saline.
Setting [17] is: dose: 400.0 mg/kg/injection, schedule: Q01DX001 (ip), vehicle: saline.

Values joined by “and” are separate entries in the source; they are usually repeats but may differ in a detail not shown here. Equal values may be shown once. Inconclusive results and toxic doses are left out.

As to `CN1CCN(CCNc2ccc(CO)c3sc4ccccc4c(=O)c23)CC1`, the T/C by setting is: (dose: 31.25 mg/kg/injection, schedule: Q01DX009 (ip), vehicle: Klucel (hydroxypropylcellulose) (HPC)) 100 % of control; (dose: 62.5 mg/kg/injection, schedule: Q01DX009 (ip), vehicle: Klucel (hydroxypropylcellulose) (HPC)) 97 % of control; (dose: 125.0 mg/kg/injection, schedule: Q01DX009 (ip), vehicle: Klucel (hydroxypropylcellulose) (HPC)) 105 % of control.

For `CCNCCCCNCC`, the T/C by setting is: (dose: 25.0 mg/kg/injection, schedule: Q01DX009 (ip), vehicle: saline with Tween-80) 95 % of control; (dose: 25.0 mg/kg/injection, schedule: Q04DX003 (ip), vehicle: saline with Tween-80) 98 % of control; under setting [1], 101 % of control; under setting [2], 91 % of control; under setting [3], 94 % of control and 87 % of control.

Consider `O=C(O)c1ccc2c(c1Nc1ccccc1)C(=O)c1ccccc1C2=O`, for which the T/C (dose: 100.0 mg/kg/injection, schedule: Q01DX009 (ip), vehicle: saline) was 106 % of control; the T/C (dose: 200.0 mg/kg/injection, schedule: Q01DX009 (ip), vehicle: saline) was 94 % of control; the T/C (dose: 400.0 mg/kg/injection, schedule: Q01DX009 (ip), vehicle: saline) is 94 % of control.

Take `c1ccc([Si](c2ccccc2)(c2ccccc2)c2ccc(-c3ccc([Si](c4ccccc4)(c4ccccc4)c4ccccc4)cc3)cc2)cc1`: the T/C reads like this: (dose: 200.0 mg/kg/injection, schedule: Q01DX001 (ip), vehicle: saline with Tween-80) 90 % of control; (dose: 400.0 mg/kg/injection, schedule: Q01DX001 (ip), vehicle: saline with Tween-80) 88 % of control.

`Oc1ccc(Nc2ccnc3cc(Cl)ccc23)cc1CN(CCCl)CCCl`: the T/C (dose: 5.0 mg/kg/injection, schedule: Q01DX001 (ip), vehicle: saline) was 109 % of control and the T/C (dose: 10.0 mg/kg/injection, schedule: Q01DX001 (ip), vehicle: saline) is 109 % of control.

Turning to `Cc1ccccc1NC=O`, the T/C runs as follows: under setting [4], 101 % of control; under setting [3], 87 % of control; under setting [5], 101 % of control; under setting [6], 91 % of control; (dose: 400.0 mg/kg/injection, schedule: Q04DX003 (ip), vehicle: saline with Tween-80) 100 % of control.

Consider `O=S(=O)(O)c1ccc(Nc2ccccc2)cc1`, for which the T/C by setting is: under setting [7], 103 % of control and 100 % of control; under setting [8], 107 % of control and 103 % of control; under setting [9], 103 % of control and 102 % of control; under setting [10], 96 % of control and 103 % of control; under setting [11], 108 % of control and 102 % of control; under setting [12], 102 % of control and 101 % of control.

As for `[N-]=[N+]=Nc1ccc(C(=O)NCc2cnc(N)nc2N)cc1`, the T/C under setting [13] was 98 % of control.

Take `Cc1nc2c(=O)n(C)c(=O)n(C)c2n1C`: the T/C is 101 % of control under setting [1]; 98 % of control under setting [4]; 100 % of control under setting [3]; 100 % of control under setting [5]; 98 % of control under setting [6].

With `O=C(NCCCCCCNC(=O)NS(=O)(=O)c1ccccc1)NS(=O)(=O)c1ccccc1`, the T/C (dose: 50.0 mg/kg/injection, schedule: Q01DX001 (ip), vehicle: carboxymethylcellulose (CMC)) was 119 % of control; the T/C (dose: 100.0 mg/kg/injection, schedule: Q01DX001 (ip), vehicle: carboxymethylcellulose (CMC)) is 102 % of control; the T/C (dose: 200.0 mg/kg/injection, schedule: Q01DX001 (ip), vehicle: carboxymethylcellulose (CMC)) was 107 % of control; the T/C under setting [14] was 105 % of control.

Turning to `Clc1nc2ccccc2[nH]1`, the T/C is 114 % of control under setting [15], 105 % of control under setting [16] and 110 % of control under setting [17].

In the case of `CCCCCCCC(=O)N1CCOCC1`, under setting [2], the T/C was 96 % of control.

Turning to `CC1CCC2C(CCC3CCCCC32)C1` (stereo not given), the T/C is, setting by setting: under setting [15], 107 % of control; under setting [16], 107 % of control.

With `N#CC(C#N)=Cc1ccsc1`, the T/C was 102 % of control (dose: 6.25 mg/kg/injection, schedule: Q01DX009 (ip), vehicle: Klucel (hydroxypropylcellulose) (HPC)); 94 % of control (dose: 12.5 mg/kg/injection, schedule: Q01DX009 (ip), vehicle: Klucel (hydroxypropylcellulose) (HPC)); 102 % of control (dose: 12.5 mg/kg/injection, schedule: Q04DX003 (ip), vehicle: Klucel (hydroxypropylcellulose) (HPC)); 100 % of control (dose: 25.0 mg/kg/injection, schedule: Q01DX009 (ip), vehicle: Klucel (hydroxypropylcellulose) (HPC)); 96 % of control (dose: 25.0 mg/kg/injection, schedule: Q04DX003 (ip), vehicle: Klucel (hydroxypropylcellulose) (HPC)).

With `Cc1ccc(NC(=O)N(CCCl)N=O)cc1NC(=O)N(CCCl)N=O`, the T/C reads like this: (dose: 177.0 mg/kg/injection, schedule: Q01DX001 (ip), vehicle: carboxymethylcellulose (CMC)) 154 % of control; (dose: 266.0 mg/kg/injection, schedule: Q01DX001 (ip), vehicle: carboxymethylcellulose (CMC)) 152 % of control; (dose: 266.0 mg/kg/injection, schedule: Q01DX009 (ip), vehicle: carboxymethylcellulose (CMC)) 152 % of control; under setting [14], 157 % of control; (dose: 400.0 mg/kg/injection, schedule: Q01DX009 (ip), vehicle: carboxymethylcellulose (CMC)) 195 % of control; (dose: 600.0 mg/kg/injection, schedule: Q01DX001 (ip), vehicle: carboxymethylcellulose (CMC)) 158 % of control. Also, under “dose: 600.0 mg/kg/injection, schedule: Q01DX009 (ip), vehicle: carboxymethylcellulose (CMC)”, the T/C is 202 % of control.

With `CSc1ncnc2c1C[P+](Cc1ccccc1)(c1ccccc1)CC2` (stereo not given), under setting [13], the T/C was 103 % of control.

With `O=C(O)CNCc1ccc2c(c1)OCCO2`, the T/C was 108 % of control (dose: 100.0 mg/kg/injection, schedule: Q01DX001 (ip), vehicle: Klucel (hydroxypropylcellulose) (HPC)); 92 % of control (dose: 200.0 mg/kg/injection, schedule: Q01DX001 (ip), vehicle: Klucel (hydroxypropylcellulose) (HPC)); 95 % of control (dose: 400.0 mg/kg/injection, schedule: Q01DX001 (ip), vehicle: Klucel (hydroxypropylcellulose) (HPC)).

For `O=C(O)CC(NC(=O)COc1ccc(F)cc1)C(=O)O` (stereo not given), the T/C is, setting by setting: (dose: 100.0 mg/kg/injection, schedule: Q04DX002 (ip), vehicle: Klucel (hydroxypropylcellulose) (HPC)) 89 % of control; (dose: 200.0 mg/kg/injection, schedule: Q04DX002 (ip), vehicle: Klucel (hydroxypropylcellulose) (HPC)) 89 % of control; (dose: 400.0 mg/kg/injection, schedule: Q04DX002 (ip), vehicle: Klucel (hydroxypropylcellulose) (HPC)) 96 % of control.

For the molecule `c1ccc(CCCCc2ccccn2)cc1`, the T/C under setting [7] was 105 % of control; the T/C under setting [8] was 101 % of control; the T/C under setting [9] is 105 % of control; the T/C under setting [10] is 105 % of control; the T/C under setting [11] was 97 % of control; the T/C under setting [12] was 94 % of control.

For the molecule `CCCCCCCCCCCCCC(=O)[O][Sn]([CH2]CCC)([CH2]CCC)[O]C(=O)CCCCCCCCCCCCC`, the T/C reads like this: (dose: 0.78 mg/kg/injection, schedule: Q04DX003 (ip), vehicle: other) 95 % of control; (dose: 1.56 mg/kg/injection, schedule: Q04DX003 (ip), vehicle: other) 98 % of control; (dose: 3.13 mg/kg/injection, schedule: Q04DX003 (ip), vehicle: other) 96 % of control; (dose: 6.25 mg/kg/injection, schedule: Q04DX003 (ip), vehicle: other) 109 % of control; (dose: 12.5 mg/kg/injection, schedule: Q04DX003 (ip), vehicle: other) 101 % of control.

With `O=C(CCN1CCCCC1)c1ccc([N+](=O)[O-])cc1`, the T/C under setting [16] is 103 % of control.

As for `C/C(O)=C/c1cc(N2CCCCC2)nc(=S)[nH]1`, the T/C is 102 % of control under setting [8], 100 % of control under setting [10] and 100 % of control under setting [12].

`O=C(O)O.[Co].[NH-]CC[N-]CC[N-]CC[NH-]`: the T/C is 97 % of control (dose: 50.0 mg/kg/injection, schedule: Q01DX001 (ip), vehicle: saline); 108 % of control under setting [15]; 92 % of control under setting [16]; 100 % of control under setting [17].

The values above are taken from PubChem BioAssay AID248 (DTP/NCI, 2004).
